Data taken from patent US20150150995A1, “CONJUGATED ANTI-MICROBIAL COMPOUNDS AND CONJUGATED ANTI-CANCER COMPOUNDS AND USES THEREOF” (PONO CORPORATION, priority 2012, published 2015).
Where a name gives a salt, the structure may show the parent alone. Read-outs that look alike come from different tables or passages of the source.

Legend:
[1] = tested on: carbapenem-resistant enterobacteriaceae (CRE); assay: Minimum inhibitory concentration (MIC) test against CRE; format: cell-based; settings: drug resistant gram negative bacterium
Experimental: (§1) This complex can be easily compared to the cefazolin sodium salt by testing the minimum inhibitory concentration (MIC). Initial tests were performed against a drug resistant gram negative bacterium; carbapenem-resistant enterobacteriaceae (CRE) and a drug resistant gram positive bacterium; methicillin-resistant staphylococcus aureus (MRSA). […] By transforming the cefazolin sodium salt into a silver complex, it changes the antibiotic that CRE and MRSA are resistant to, to a compound that CRE and MRSA are susceptible to. Thus, in several embodiments, the compositions provided for herein lead to a heretofore unseen efficacy against drug-resistant microorganisms.

[2] = tested on: methicillin-resistant staphylococcus aureus (MRSA); assay: Minimum inhibitory concentration (MIC) test against MRSA; format: cell-based
Experimental: as §1

Compound | MIC ([1]; read-out: MIC) | MIC ([2]; Staphylococcus aureus) | MIC [1] | MIC ([2]; drug resistant gram positive bacterium)
Cc1nnc(SCC2=C(C(=O)O)N3C(=O)[C@@H](NC(=O)Cn4cnnn4)[C@H]3SC2)s1 [cefazolin sodium salt, Cefazolin sodium salt] | > 256 µg/mL | 256 µg/mL |  | 
cefazolin silver complex |  |  | 4 µg/mL | 4 µg/mL
